How the values were obtained:
U-CH2 chordoma cell line = assay: Cell viability assay (alamarBlue, 72 h), U-CH2; assay type: cell-based, human; details: n = 4, 72 h
Outline: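 Cells grown in 4:1 IMDM:RPMI with 10% FBS on gel-coated flasks, dosed in quadruplicate 24 h after seeding in 384-well plates.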

HL60 cells = assay: AsedaSciences SYSTEMETRIC Cell Health Screen (flow cytometry toxicity profiling); details: HL60, 4 h, 5 nM–100 µM; for CC: Cell Cycle score / CM: Cell morphology score / CMI: Cell membrane integrity score / GSH: Glutathione score / MMP: Mitochondrial membrane depolarization score / NMI1: Nuclear membrane integrity 1 score / NMI2: Nuclear membrane integrity 2 score / ROS: Reactive superoxide species score: probability 0–1, n = 2; for CHI: Cell Health Index: probability (0–1) of high-risk class, n = 2
Outline: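 HL60 cells (100,000 per well) exposed 4 h at 37 °C, 5% CO2 to 10-step 3× dilutions (5 nM–100 µM), in duplicate. Cells then stained with mitochondrial and cell-stress reporter dyes and read by ungated flow cytometry over twelve parameters. Cell Health Index and eight endpoint scores come from an ML classifier trained on 300 high/low-risk compounds.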

MINK1 = MINK1 (Homo sapiens, UniProt Q8N4C8); assay: 33PanQinase activity assay; assay type: biochemical; details: for Residual activity: singlicate
MINK1, sequence (Q8N4C8 whole entry): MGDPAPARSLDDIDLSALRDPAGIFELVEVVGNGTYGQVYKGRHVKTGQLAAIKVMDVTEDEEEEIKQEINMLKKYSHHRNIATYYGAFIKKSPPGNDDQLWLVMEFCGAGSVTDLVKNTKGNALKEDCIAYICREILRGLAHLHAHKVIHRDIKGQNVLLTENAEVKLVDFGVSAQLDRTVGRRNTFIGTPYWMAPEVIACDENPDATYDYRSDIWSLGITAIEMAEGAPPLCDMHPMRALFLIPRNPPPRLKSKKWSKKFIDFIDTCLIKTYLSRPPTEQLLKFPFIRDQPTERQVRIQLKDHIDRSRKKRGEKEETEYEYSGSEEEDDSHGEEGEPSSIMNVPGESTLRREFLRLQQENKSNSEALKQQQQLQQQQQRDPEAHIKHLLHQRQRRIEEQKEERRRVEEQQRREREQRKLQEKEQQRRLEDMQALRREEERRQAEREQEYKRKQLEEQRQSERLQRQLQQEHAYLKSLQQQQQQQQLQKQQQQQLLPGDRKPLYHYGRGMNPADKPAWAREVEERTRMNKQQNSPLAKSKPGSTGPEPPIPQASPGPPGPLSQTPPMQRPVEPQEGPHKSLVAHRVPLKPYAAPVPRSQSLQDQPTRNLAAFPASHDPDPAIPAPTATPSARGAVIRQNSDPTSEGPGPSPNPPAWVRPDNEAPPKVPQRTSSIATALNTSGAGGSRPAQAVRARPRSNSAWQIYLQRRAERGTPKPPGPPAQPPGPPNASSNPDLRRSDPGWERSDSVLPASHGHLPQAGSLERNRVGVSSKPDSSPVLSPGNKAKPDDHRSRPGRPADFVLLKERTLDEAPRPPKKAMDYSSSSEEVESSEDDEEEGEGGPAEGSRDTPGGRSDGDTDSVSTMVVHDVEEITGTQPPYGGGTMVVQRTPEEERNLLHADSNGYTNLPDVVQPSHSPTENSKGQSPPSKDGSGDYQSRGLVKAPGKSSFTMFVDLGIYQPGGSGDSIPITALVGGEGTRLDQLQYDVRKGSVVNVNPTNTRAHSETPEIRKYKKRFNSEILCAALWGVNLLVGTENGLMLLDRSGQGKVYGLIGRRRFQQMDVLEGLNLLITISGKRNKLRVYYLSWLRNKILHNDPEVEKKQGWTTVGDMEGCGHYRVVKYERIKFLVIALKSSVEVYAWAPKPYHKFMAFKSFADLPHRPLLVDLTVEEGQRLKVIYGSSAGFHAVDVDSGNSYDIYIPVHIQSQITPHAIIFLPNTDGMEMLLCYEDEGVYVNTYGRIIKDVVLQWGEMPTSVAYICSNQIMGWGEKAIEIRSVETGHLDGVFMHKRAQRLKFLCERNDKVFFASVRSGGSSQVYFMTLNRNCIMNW
Description: (§1) Table S4. Profiling of two compounds at two concentrations against 320 wild-type protein kinases; singlicate measurement; Residual activities (% of control).

MAP4K5 = MAP4K5 (Homo sapiens, UniProt Q9Y4K4); assay: 33PanQinase activity assay; assay type: biochemical; details: for Residual activity: singlicate
MAP4K5, sequence (Q9Y4K4 whole entry): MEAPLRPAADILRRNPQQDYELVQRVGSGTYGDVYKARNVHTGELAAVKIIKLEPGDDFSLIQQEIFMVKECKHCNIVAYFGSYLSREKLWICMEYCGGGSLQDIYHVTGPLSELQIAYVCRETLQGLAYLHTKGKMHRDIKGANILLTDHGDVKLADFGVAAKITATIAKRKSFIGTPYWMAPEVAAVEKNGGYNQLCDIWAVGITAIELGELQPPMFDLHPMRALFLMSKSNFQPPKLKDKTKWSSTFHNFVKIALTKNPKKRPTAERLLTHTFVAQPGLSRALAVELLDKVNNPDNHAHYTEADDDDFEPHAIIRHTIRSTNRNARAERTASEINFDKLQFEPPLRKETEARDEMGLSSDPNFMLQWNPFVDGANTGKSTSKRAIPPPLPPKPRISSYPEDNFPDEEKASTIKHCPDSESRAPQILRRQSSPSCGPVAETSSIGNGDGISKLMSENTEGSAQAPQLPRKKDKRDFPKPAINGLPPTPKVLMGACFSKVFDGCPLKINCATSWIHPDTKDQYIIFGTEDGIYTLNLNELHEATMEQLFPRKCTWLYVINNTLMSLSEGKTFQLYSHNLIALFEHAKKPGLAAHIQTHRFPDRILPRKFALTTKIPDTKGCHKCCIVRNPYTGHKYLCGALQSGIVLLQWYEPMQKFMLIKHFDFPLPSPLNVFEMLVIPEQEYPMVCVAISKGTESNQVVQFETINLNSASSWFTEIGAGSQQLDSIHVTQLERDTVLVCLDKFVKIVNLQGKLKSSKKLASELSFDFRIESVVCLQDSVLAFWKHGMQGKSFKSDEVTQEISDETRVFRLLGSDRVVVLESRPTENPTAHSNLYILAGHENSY
Description: as §1

VEGFR2 = VEGFR2 (Homo sapiens, UniProt P35968); assay: 33PanQinase activity assay; assay type: biochemical; details: 10 μM
VEGFR2, sequence (P35968 20-1356): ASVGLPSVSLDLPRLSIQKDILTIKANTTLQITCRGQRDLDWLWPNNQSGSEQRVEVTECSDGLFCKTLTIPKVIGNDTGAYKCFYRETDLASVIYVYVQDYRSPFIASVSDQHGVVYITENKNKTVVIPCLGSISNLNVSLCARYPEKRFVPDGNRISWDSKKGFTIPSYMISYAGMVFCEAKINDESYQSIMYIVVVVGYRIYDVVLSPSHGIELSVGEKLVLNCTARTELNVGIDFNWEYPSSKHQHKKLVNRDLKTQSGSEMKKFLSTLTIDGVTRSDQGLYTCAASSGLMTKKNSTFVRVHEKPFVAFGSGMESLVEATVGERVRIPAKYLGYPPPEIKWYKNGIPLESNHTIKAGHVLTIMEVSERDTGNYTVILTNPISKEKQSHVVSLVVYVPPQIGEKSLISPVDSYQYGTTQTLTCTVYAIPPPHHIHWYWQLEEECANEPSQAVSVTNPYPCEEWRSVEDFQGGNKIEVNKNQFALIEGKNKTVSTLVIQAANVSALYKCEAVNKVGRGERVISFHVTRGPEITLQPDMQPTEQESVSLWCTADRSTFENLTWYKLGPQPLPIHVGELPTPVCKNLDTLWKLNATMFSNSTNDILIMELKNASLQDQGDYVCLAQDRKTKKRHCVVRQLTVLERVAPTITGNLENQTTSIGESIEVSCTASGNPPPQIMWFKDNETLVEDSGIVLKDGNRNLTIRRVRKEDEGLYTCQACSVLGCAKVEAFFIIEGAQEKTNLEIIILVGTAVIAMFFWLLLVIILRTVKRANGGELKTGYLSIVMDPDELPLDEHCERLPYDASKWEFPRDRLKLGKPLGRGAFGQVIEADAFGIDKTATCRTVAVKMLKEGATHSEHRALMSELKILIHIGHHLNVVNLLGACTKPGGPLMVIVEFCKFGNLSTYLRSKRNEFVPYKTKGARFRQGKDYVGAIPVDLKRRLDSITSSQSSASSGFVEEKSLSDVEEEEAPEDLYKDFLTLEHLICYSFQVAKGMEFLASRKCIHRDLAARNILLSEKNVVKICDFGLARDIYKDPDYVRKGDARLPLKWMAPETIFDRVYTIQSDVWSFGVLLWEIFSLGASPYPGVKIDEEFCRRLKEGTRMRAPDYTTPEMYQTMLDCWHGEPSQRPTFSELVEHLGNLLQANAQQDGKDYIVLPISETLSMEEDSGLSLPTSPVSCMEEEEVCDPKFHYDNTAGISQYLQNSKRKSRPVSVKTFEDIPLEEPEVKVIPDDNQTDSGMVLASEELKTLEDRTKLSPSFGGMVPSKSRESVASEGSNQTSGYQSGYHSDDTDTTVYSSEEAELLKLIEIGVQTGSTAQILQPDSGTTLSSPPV
Description: as §1

| Structure (SMILES) | IC50 (U-CH2 chordoma cell line) | CC: Cell Cycle score (HL60 cells) | CM: Cell morphology score (HL60 cells) | CMI: Cell membrane integrity score (HL60 cells) | GSH: Glutathione score (HL60 cells) | MMP: Mitochondrial membrane depolarization score (HL60 cells) | NMI1: Nuclear membrane integrity 1 score (HL60 cells) | NMI2: Nuclear membrane integrity 2 score (HL60 cells) | ROS: Reactive superoxide species score (HL60 cells) | CHI: Cell Health Index (HL60 cells) | Residual activity (MINK1; MINK1, 1.0E-06 M) | Residual activity (MINK1; MINK1, 1.0E-07 M) | Residual activity (MAP4K5; MAP4K5, 1.0E-06 M) | Residual activity (MAP4K5; MAP4K5, 1.0E-07 M) | MINK1 inhibition (MINK1; 10 μM) | VEGFR2 inhibition (VEGFR2) | MAP4K5 inhibition (MAP4K5; 10 μM) |
| --- | --- | --- | --- | --- | --- | --- | --- | --- | --- | --- | --- | --- | --- | --- | --- | --- | --- |
| C#Cc1cc(Nc2ncnc3cc(I)ccc23)ccc1Cl [Compound 41] | 16 µM | 0.91 | 1.00 | 1.00 | 0.99 | 1.00 | 1.00 | 1.00 | 0.99 | 0.88 | 54 % of control | 64 % of control | 70 % of control | 101 % of control |  |  |  |
| C#Cc1cc(Nc2ncnc3cc(OC)c(OC)cc23)ccc1Cl [Compound 45] | 35 µM | 0.10 | 1.00 | 0.51 | 0.079 | 0.48 | 0.60 | 0.40 | 0.77 | 0.60 | 29 % of control | 86 % of control | 22 % of control | 108 % of control | > 50% | > 50% | > 50% |
